“And” between values parts separate entries of the source, which are not always exact repeats. Identical values can stand only once.
Tested on: SUM149PT spheroids with HUVEC/MSC, viability
Assay: Anticancer human tumor SUM149PT cell line growth inhibition [GQUAD];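 also: spheroids exposed to drugs for seven days before readout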;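 as to viability, T/C: percent viability relative to DMSO vehicle control taken as 100%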
Settings: for viability, T/C: stronger effect = lower value
Text: DNA G-quadruplex Stabilizer Agents in Combinations in Complex Spheroids
A high-throughput screen of multi-cell type tumor spheroids was designed to identify active combinations of DNA G-quadruplex stabilizer agents and targeted small molecules. Complex spheroids include a stromal component modeled by human endothelial cells (HUVEC) and fibroblasts modeled by human mesenchymal stem cells (MSCs). The concentration ranges selected for each drug and investigational agent were based upon clinically achievable concentrations if the clinical Cmax of the agent was known.
Compounds. The drugs and investigational agents: pidnarulex (CX-5461; NSC782164), APTO-253 (NSC789042), BRACO-19 (NSC847499), peposertib (NSC802822), ceralasertib (NSC780249), elimusertib (NSC800525), camonsertib (NSC841442), AZD-1390 (NSC803789), olaparib (NSC753686), talazoparib (NSC767125), ART-558 (NSC835418), sotorasib (NSC818433), MRTX-1133 (NSC836407), SN-38 (NSC673596), topotecan (NSC609699), etoposide (NSC141540), doxorubicin (NSC123127), gemcitabine (NSC613327), 5-fluorouracil (NSC19893), paclitaxel (NSC125973), vemurafenib (NSC761431), panobinostat (NSC761190), R-306465 (JNJ-16241199; NSC773264), adavosertib (NSC754352), TP-3654 (NSC805149), carboplatin (NSC241240), KSQ-4279 (NSC840948), and staurosporine (NSC755774) were obtained from the National Cancer Institute (NCI) Developmental Therapeutics Program Chemical Repository (34). The FDA-approved anticancer drug set is available from the NCI Developmental Therapeutics Program. […] The stock solutions were prepared in dimethyl sulfoxide (DMSO, Sigma-Aldrich, St. Louis, MO, cat. D2650) at 800-fold the tested concentration and stored at -70 degrees C prior to their use. All drugs and investigational agents were tested over a range starting from a high concentration at or near the clinical Cmax and decreasing in half-log increments. If the clinical Cmax for an agent had not been determined, the highest concentration tested was 10 microM.
2.3 Cell Culture. All cells were maintained in an incubator at 37 degrees C and 5% CO2 with 95% humidity. The PDC lines were cultured according to standard operating procedures established by the NCI PDMR. All PDCs were thawed and cultured in Matrigel-coated flasks prepared with a working solution of 1X Ham's F-12 nutrient mix, without supplementation (Invitrogen, cat. 11765054), 100 U/mL penicillin-streptomycin (Invitrogen, cat. 15140122), and 2.5% Matrigel (Corning Inc., cat. 354248) for the first three passages. The 857933-349-R-J2-PDC line was cultured in 6C/Colon 1B media, which includes advanced DMEM/F-12 (Thermo Fisher Scientific, cat. 12634028), 10 mM HEPES (Thermo Fisher Scientific, cat. 15630080), 1X GlutaMAX supplement (Thermo Fisher Scientific, cat. 35050061), 0.1 mg/mL primocin (InvivoGen, cat. ant-pm-2), 10% defined fetal bovine serum, heat inactivated (HyClone Laboratories Inc., cat. SH30070.03HI), 50% L-WRN conditioned media (ATCC, cat. CRL-3276), 1.25 mM N-Acetyl-L-cysteine (Sigma-Aldrich, cat. A9165), 10 mM nicotinamide (Sigma-Aldrich, cat. N0636), 1X B-27 supplement (Thermo Fisher Scientific, cat. 17504044), 1X N-2 supplement (Thermo Fisher Scientific, cat. 17502048), 10 microM Y-27632 dihydrochloride (Tocris Bioscience, cat. 1254), and 50 ng/mL human EGF recombinant protein (Thermo Fisher Scientific, cat. PHG0311). The 485176-168-R4-J1-PDC line was cultured in Panc media, which includes all 6C/Colon 1B media components plus 100 ng/mL human FGF-10 (Thermo Fisher Scientific, cat. 100-26), 500 nM SB-431542 (Selleckchem, cat. S1067), and gastrin (Tocris, cat. 3006).
[…]

[1] = curve of first compound, second compound 0.0316 µM
[2] = curve of first compound, second compound 0.1 µM
[3] = curve of first compound, second compound 0.316 µM
[4] = curve of first compound, second compound 1 µM
[5] = curve of first compound, second compound 3.16 µM
[6] = curve of first compound, second compound 10 µM
[7] = second compound 0.0316 µM, first compound 0.0316 µM
[8] = second compound 0.0316 µM, first compound 0.1 µM
[9] = second compound 0.0316 µM, first compound 0.316 µM
[10] = second compound 0.0316 µM, first compound 1 µM
[11] = second compound 0.0316 µM, first compound 3.16 µM
[12] = second compound 0.0316 µM, first compound 10 µM
[13] = second compound 0.1 µM, first compound 0.0316 µM
[14] = second compound 0.1 µM, first compound 0.1 µM
[15] = second compound 0.1 µM, first compound 0.316 µM
[16] = second compound 0.1 µM, first compound 1 µM
[17] = second compound 0.1 µM, first compound 3.16 µM
[18] = second compound 0.1 µM, first compound 10 µM
[19] = second compound 0.316 µM, first compound 0.0316 µM
[20] = second compound 0.316 µM, first compound 0.1 µM
[21] = second compound 0.316 µM, first compound 0.316 µM
[22] = second compound 0.316 µM, first compound 1 µM
[23] = second compound 0.316 µM, first compound 3.16 µM
[24] = second compound 0.316 µM, first compound 10 µM
[25] = second compound 1 µM, first compound 0.0316 µM
[26] = second compound 1 µM, first compound 0.1 µM
[27] = second compound 1 µM, first compound 0.316 µM
[28] = second compound 1 µM, first compound 1 µM
[29] = second compound 1 µM, first compound 3.16 µM
[30] = second compound 1 µM, first compound 10 µM
[31] = second compound 3.16 µM, first compound 0.0316 µM
[32] = second compound 3.16 µM, first compound 0.1 µM
[33] = second compound 3.16 µM, first compound 0.316 µM
[34] = second compound 3.16 µM, first compound 1 µM
[35] = second compound 3.16 µM, first compound 3.16 µM
[36] = second compound 3.16 µM, first compound 10 µM
[37] = second compound 10 µM, first compound 0.0316 µM
[38] = second compound 10 µM, first compound 0.1 µM
[39] = second compound 10 µM, first compound 0.316 µM
[40] = second compound 10 µM, first compound 1 µM
[41] = second compound 10 µM, first compound 3.16 µM
[42] = second compound 10 µM, first compound 10 µM

## O=c1[nH]cc(F)c(=O)[nH]1 + Cc1cnc(CNC(=O)c2c(=O)c3ccc(N4CCCN(C)CC4)nc3n3c2sc2ccccc23)cn1
[1]
  IC50: 2630 nM
[2]
  IC50: 2120 nM
[3]
  IC50: 1500 nM
[4]
  IC50: < 31.6 nM
[5]
  IC50: < 31.6 nM
[6]
  IC50: < 31.6 nM
[7]
  viability, T/C: 86.5%
[8]
  viability, T/C: 86.4%
[9]
  viability, T/C: 99.3%
[10]
  viability, T/C: 75.6%
[11]
  viability, T/C: 46.1%
[12]
  viability, T/C: 34.8%
[13]
  viability, T/C: 73.6%
[14]
  viability, T/C: 64%
[15]
  viability, T/C: 82.7%
[16]
  viability, T/C: 67.2%
[17]
  viability, T/C: 40.8%
[18]
  viability, T/C: 32%
[19]
  viability, T/C: 51.1%
[20]
  viability, T/C: 61.2%
[21]
  viability, T/C: 55%
[22]
  viability, T/C: 55.2%
[23]
  viability, T/C: 40.5%
[24]
  viability, T/C: 31.2%
[25]
  viability, T/C: 43.4%
[26]
  viability, T/C: 43.5%
[27]
  viability, T/C: 51.5%
[28]
  viability, T/C: 40.9%
[29]
  viability, T/C: 35.8%
[30]
  viability, T/C: 29.4%
[31]
  viability, T/C: 38.2%
[32]
  viability, T/C: 36.2%
[33]
  viability, T/C: 38.7%
[34]
  viability, T/C: 36.5%
[35]
  viability, T/C: 36%
[36]
  viability, T/C: 30.3%
[37]
  viability, T/C: 18.6%
[38]
  viability, T/C: 9.86%
[39]
  viability, T/C: 31.9%
[40]
  viability, T/C: 31.5%
[41]
  viability, T/C: 11%
[42]
  viability, T/C: 2.12%

## CCCS(=O)(=O)Nc1ccc(F)c(C(=O)c2c[nH]c3ncc(-c4ccc(Cl)cc4)cc23)c1F
Compound 0.0316 µM
  viability, T/C: 107% and 95.3% and 95.8%
Compound 0.1 µM
  viability, T/C: 101% and 100% and 102%
Compound 0.316 µM
  viability, T/C: 101% and 97.4% and 107%
Compound 1 µM
  viability, T/C: 97.1% and 102% and 107%
Compound 3.16 µM
  viability, T/C: 76% and 70.9% and 76.2%
Compound 10 µM
  viability, T/C: 54.1% and 46.8% and 37.6%
Curve of compound
  IC50: > 10000 nM and 8570 nM and 6910 nM

## Cc1cccc(N(C)C(=O)C2C(O)CCN2c2nc(C)cc(C(F)(F)F)c2C#N)c1 (stereo not given) + Cc1cnc(CNC(=O)c2c(=O)c3ccc(N4CCCN(C)CC4)nc3n3c2sc2ccccc23)cn1
[1]
  IC50: > 10000 nM
[2]
  IC50: > 10000 nM
[3]
  IC50: > 10000 nM
[4]
  IC50: < 31.6 nM
[5]
  IC50: < 31.6 nM
[6]
  IC50: < 31.6 nM
[7]
  viability, T/C: 104%
[8]
  viability, T/C: 86.5%
[9]
  viability, T/C: 85%
[10]
  viability, T/C: 88.9%
[11]
  viability, T/C: 88%
[12]
  viability, T/C: 95.4%
[13]
  viability, T/C: 63.1%
[14]
  viability, T/C: 61.9%
[15]
  viability, T/C: 78.3%
[16]
  viability, T/C: 64.9%
[17]
  viability, T/C: 75.6%
[18]
  viability, T/C: 66.5%
[19]
  viability, T/C: 61%
[20]
  viability, T/C: 62.7%
[21]
  viability, T/C: 57.4%
[22]
  viability, T/C: 58.6%
[23]
  viability, T/C: 59.5%
[24]
  viability, T/C: 61.3%
[25]
  viability, T/C: 45.5%
[26]
  viability, T/C: 47.5%
[27]
  viability, T/C: 48.6%
[28]
  viability, T/C: 45.4%
[29]
  viability, T/C: 49.6%
[30]
  viability, T/C: 49.4%
[31]
  viability, T/C: 39.2%
[32]
  viability, T/C: 41.1%
[33]
  viability, T/C: 41.8%
[34]
  viability, T/C: 42.5%
[35]
  viability, T/C: 41.2%
[36]
  viability, T/C: 46.9%
[37]
  viability, T/C: 11%
[38]
  viability, T/C: 11.9%
[39]
  viability, T/C: 33.3%
[40]
  viability, T/C: 30.9%
[41]
  viability, T/C: 25%
[42]
  viability, T/C: 0.29%

## COc1cc(C2c3cc4c(cc3C(OC3OC5COC(C)OC5C(O)C3O)C3COC(=O)C23)OCO4)cc(OC)c1O (stereo not given)
Compound 0.0316 µM
  viability, T/C: 99.6% and 98.6% and 97.5%
Compound 0.1 µM
  viability, T/C: 88.2% and 81.7% (2×)
Compound 0.316 µM
  viability, T/C: 55.6% and 52.5% and 61.4%
Compound 1 µM
  viability, T/C: 49.3% and 48.9% and 58.8%
Compound 3.16 µM
  viability, T/C: 36% and 29.3% and 42.2%
Compound 10 µM
  viability, T/C: 18.6% and 14.3% and 22%
Curve of compound
  IC50: 837 nM and 645 nM and 1340 nM

## CC1COCCN1c1cc(C2(O)CC3CCC(C2)O3)c2cnn(-c3ccn[nH]3)c2n1 (stereo not given) + Cc1cnc(CNC(=O)c2c(=O)c3ccc(N4CCCN(C)CC4)nc3n3c2sc2ccccc23)cn1
[1]
  IC50: < 31.6 nM
[2]
  IC50: < 31.6 nM
[3]
  IC50: < 31.6 nM
[4]
  IC50: < 31.6 nM
[5]
  IC50: < 31.6 nM
[6]
  IC50: < 31.6 nM
[7]
  viability, T/C: 18.1%
[8]
  viability, T/C: 15.6%
[9]
  viability, T/C: 18.9%
[10]
  viability, T/C: 17.3%
[11]
  viability, T/C: 19.6%
[12]
  viability, T/C: 15.7%
[13]
  viability, T/C: 19.2%
[14]
  viability, T/C: 18.7%
[15]
  viability, T/C: 19.7%
[16]
  viability, T/C: 18.3%
[17]
  viability, T/C: 17.6%
[18]
  viability, T/C: 14.8%
[19]
  viability, T/C: 19.4%
[20]
  viability, T/C: 21.5%
[21]
  viability, T/C: 22%
[22]
  viability, T/C: 18.2%
[23]
  viability, T/C: 17.9%
[24]
  viability, T/C: 12.6%
[25]
  viability, T/C: 21.8%
[26]
  viability, T/C: 23.7%
[27]
  viability, T/C: 21.4%
[28]
  viability, T/C: 17.4%
[29]
  viability, T/C: 15.7%
[30]
  viability, T/C: 12.9%
[31]
  viability, T/C: 23%
[32]
  viability, T/C: 22.9%
[33]
  viability, T/C: 21.1%
[34]
  viability, T/C: 16%
[35]
  viability, T/C: 14.7%
[36]
  viability, T/C: 11%
[37]
  viability, T/C: 0.11%
[38]
  viability, T/C: 1.32%
[39]
  viability, T/C: 1.05%
[40]
  viability, T/C: 1.13%
[41]
  viability, T/C: 1.57%
[42]
  viability, T/C: 0.19%

— PubChem BioAssay AID2060484 (Molecular Pharmacology Branch, DTP, NCI, 2025)
